According to patent US20100150842A1, “Method and Kit for Detecting Resistance in Living Organisms” (priority 2007, published 2010):
Read-outs that look alike come from different tables or passages of the source.

What was measured:
[1] = cited from earlier work
[2] = tested on: fish and aquatic invertebrates; conditions: water bodies; cited from earlier work
[3] = tested on: SU-resistant Stellaria media biotypes; assay: Resistance factors of SU-resistant Stellaria media biotypes to herbicides (ratio of ED50 values); type: in vivo
Description: The sensitivity to a specific herbicide of each biotype can be tested by determining the amount of herbicide needed to reduce the biomass to 50% of the non-treated plants of the same biotype. When comparing sensitivity among biotypes the “resistance factor” can be used to characterise the sensitivity.
The “resistance factor” is used to characterize the extent of susceptibility and resistance of a species to a herbicide. Resistance factors are typically represented as a ration of ED50 values for different biotypes.
The resistance factor is the ratio of the ED50 value of the resistant and susceptible biotypes.
Results from a study with 6 SU-resistant (Sulfonylurea-resistant) Stellaria media biotypes are included.

[4] = tested on: Stellaria media sensitive and target resistant biotypes; assay: TLC analysis of Stellaria media extracts, unexposed and exposed to Hussar OD; type: in vivo
Description: S0=ID 1 Biotype 1 sensitive control S1=ID 1 Biotype 1 sensitive exposed to 1N Hussar OD+0.5 I/ha Renol R10=ID 9 Biotype 2 Target resistant control R11=ID 9 Biotype 2 Target resistant exposed to 1N Hussar OD+0.5 I/ha Renol R110=ID 9 Biotype 2 Target resistant exposed to 10N Hussar OD+0.5 I/ha Renol R20=ID 102 Biotype 3 Target resistant exposed control R21=ID 102 Biotype 3 Target resistant exposed to 1N Hussar OD+0.5 I/ha Renol R210=ID 102 Biotype 3 Target resistant exposed to 10N Hussar OD+0.5 I/ha Renol
Et=100 mg freeze-dried plant material in 4.00 ml 80% Ethanol extracted for 20 min. in ultrasonic bath (Réalisation Etudes Ultra Son (REUS), 16, allée des Cystes, 06390 Contes, France).
Aq=50 mg freeze-dried plant material in 4.00 ml 80% Ethanol extracted for 20 min. in ultrasonic bath (Réalisation Etudes Ultra Son (REUS), 16, allée des Cystes, 06390 Contes, France)+200 it EtOH after filtration.
The extracts (10 μl) were applicated on Silicagel 60 Merck 1.05721 (10×20 cm) or (5 μl) Cellulose aluminium Merck 1.05552.0001 with together with the reference T=1 0/00× in ethanol using a TLC Automatic TLC Sampler III.

[5] = tested on: Stellaria media SU-susceptible and SU-resistant biotype; assay: Biomarker pattern (HPPC) in extracts of Stellaria media exposed to iodosulfuron; type: in vivo; conditions: for number of type B biomarkers detected in extracts of susceptible plants: 50% of recommended field dose
Procedure: A SU-susceptible and SU-resistant biotype of Stellaria media was cultivated outdoors in 2-litre pots. At the 4-5 leaf stage the plants were exposed to iodosulfuron (IOD) applied in mixture with a methylated vegetable oil (Renol). Iodosulfuron was applied at 50% of the recommended field dose. The plants were harvested 4, 7 and 14 days after exposure. Immediately after harvest the plants were frozen and freeze-dried.
Freeze-dried plant material (50 mg per ml of 75% ethanol) was extracted in ultrasonic bath with ice for two hours. The extracts were centrifuged before analysis.
A biomarker pattern was detected as phytochemical changes in plant extracts. A comparison of the extracts of an un-treated susceptible (Biotype 1) and an untreated resistant (Biotype 2) of Stellaria media is shown as biomarkers type A. See further description in Example 3.
A comparison of extracts of the same biotypes exposed to iodosulfuron is shown as biomarkers type B. See further description in Example 3.
High Performance Planar Chromatography (HPPC)-systems were used to detect the two types of biomarkers.

[6] = tested on: Papaver rhoeas sensitive and target resistant biotypes; assay: TLC analysis of Papaver rhoeas extracts, unexposed and exposed to Hussar OD; type: in vivo
Description: S0=ID 150 Biotype 4 sensitive control S1=ID 150 Biotype 4 sensitive exposed to 1N Hussar OD+0.5 I/ha Renol R0=ID 397 Biotype 5 Target resistant control R1=ID 397 Biotype 5 Target resistant exposed to 1N Hussar OD+0.5 I/ha Renol R10=ID 397 Biotype 5 Target resistant exposed to 10N Hussar OD+0.5 I/ha Renol R20=ID 248 Biotype 6 Target resistant exposed control R21=ID 248 Biotype 6 Target resistant exposed to 1N Hussar OD+0.5 I/ha Renol R210=ID 248 Biotype 6 Target resistant exposed to 10N Hussar OD+0.5 I/ha Renol R30=ID 406 Biotype 12 Target resistant exposed control R31=ID 406 Biotype 12 Target resistant exposed to 1N Hussar OD+0.5 I/ha Renol R310=ID 406 Biotype 12 Target resistant exposed to 10N Hussar OD+0.5 I/ha Renol
100 mg freeze-dried plant material (Papaver rhoeas (Papaveraceae) in 4.00 ml 80% Ethanol extracted for 20 min. in ultrasonic bath (Realisation Etudes Ultra Son (REUS), 16, allée des Cystes, 06390 Contes, France). The extract was filtered through GELMAN GHP Agrodisc 13 0.45 μm.
The extracts (20 μl) were applicated on Silicagel 60 Merck 1.05721 (10×20 cm) or (10 μl) Cellulose aluminium Merck 1.05552.0001 together with the reference 1 0/00 papaverin in ethanol using a TLC Automatic TLC Sampler III.
TLC 5) Plate: Cellulose; Solvent: 2% Acetic acid in Water. The results can be seen in FIG. 7.
Detection: UV 366 nm after derivatisation with NEU+PEG is seen in FIG. 7b.

SMILES: O=C(O)CNCP(=O)(O)O [Glyphosate]
- half-life ([1]; degraded by rapid microbial action): 3-5 weeks

SMILES: CCC(CC)Nc1c([N+](=O)[O-])cc(C)c(C)c1[N+](=O)[O-] [Pendimethalin]
- toxicity to fish [2]: toxic

SMILES: N#Cc1cc(Br)c(O)c(Br)c1 [Bromoxynil]
- half-life ([1]; most soil types): two

SMILES: COc1ncc(F)c2nc(S(=O)(=O)Nc3c(F)cccc3F)nn12 [florasulam]
- cross-resistance of SU-resistant biotypes [3]: could not be confirmed

SMILES: COc1nc(C)nc(NC(=O)NS(=O)(=O)c2cc(I)ccc2C(=O)O)n1 [iodosulfuron]
- new flavonoid in plant extract (TLC) ([4]; Stellaria media sensitive plant exposed): present
- new flavonoid in plant extract (TLC) ([4]; Stellaria media target resistant biotypes, only at very high exposure concentrations (10N)): not present
- number of type B biomarkers detected in extracts of susceptible plants ([5]; 7 and 14 days after exposure): 7
- number of type B biomarkers detected in extracts of susceptible plants ([5]; 4 days after exposure): Five
- unique biomarker pattern in extracts ([5]; SU-resistant Stellaria media biotype): absent
- unique biomarker pattern in extracts ([5]; susceptible Stellaria media biotype, 4, 7 and 14 days after exposure): detected
- new flavonoid in plant extract (TLC) ([6]; Papaver rhoeas biotypes of the target resistant plants): not present
- new flavonoid in plant extract (TLC) ([6]; Papaver rhoeas sensitive plant exposed): present
